Laboratory results reported in patent US7378375B1, “Substituted pyridine herbicides” (Syngenta Crop Protection, Inc., priority 2000, dated 2008).

Assays:
[1] = test system: Monocotyledonous and dicotyledonous test plants; assay: Herbicidal action before emergence of the plants (pre-emergence action), greenhouse pot test, 9-level rating after 4 weeks; format: in vivo; design: key: 9-level scale: 1 = complete damage, 9 = no effect; settings: 250 g/ha, rated after 4 weeks, 9-level scale
Procedure: Herbicidal Action Before Emergence of the Plants (Pre-Emergence Action)
(§1) Monocotyledonous and dicotyledonous test plants are sown in standard soil in pots. Immediately after sowing, the test substances are sprayed on at an optimum dosage (500 l of water/ha) as an aqueous suspension (prepared from a wettable powder (example F3, b) according to WO 97/34485) or emulsion (prepared from an emulsion concentrate (example F1, c) according to WO 97/34485). The test plants are then grown under optimum conditions in a greenhouse.
After a test period of 4 weeks, the test is evaluated using a 9-level scale of ratings (1=complete damage, 9=no effect). Ratings of 1 to 4 (in particular 1 to 3) mean good to very good herbicidal action.

[2] = test system: Monocotyledonous and dicotyledonous test plants; assay: Post-emergence herbicidal action, greenhouse pot test, sprayed at the 2- to 3-leaf stage, 9-level rating after 2 to 3 weeks; format: in vivo; design: key: 9-level scale: 1 = complete damage, 9 = no effect; settings: 250 g/ha, rated after 2 to 3 weeks, 9-level scale
Procedure: Post-Emergence Herbicidal Action
as §1, with “grown” for “sown”, “At the 2- to 3-leaf stage of the test plants,” for “Immediately after sowing,”, “sprayed” for “sprayed on”, “at” for “at an”, “grown further” for “grown”
After a test period of 2 to 3 weeks, the test is evaluated using a 9-level scale of rating (1=complete damage, 9=no effect). Ratings of 1 to 4 (in particular 1 to 3) mean good to very good herbicidal action.

## COCc1nc(C(F)(F)F)ccc1C(=O)c1c(C)nn(C)c1O [A1-C2]
[1]
  Pre-emergence action rating, Abutilon: 4
  Pre-emergence action rating, Amaranthus: 3
  Pre-emergence action rating, Chenop.: 1
  Pre-emergence action rating, Digitaria: 3
  Pre-emergence action rating, Echino.: 3
  Pre-emergence action rating, Panicum: 6
[2]
  Post-emergence action rating, Abutilon: 3
  Post-emergence action rating, Amaranth: 2
  Post-emergence action rating, Chenop.: 4
  Post-emergence action rating, Digitaria: 8
  Post-emergence action rating, Echino.: 4
  Post-emergence action rating, Ipopur.: 3
  Post-emergence action rating, Panicum: 7
  Post-emergence action rating, Xanth.: 4

## COCc1nc(C(F)(F)F)ccc1C(=O)c1cnn(C)c1O [A1-C5]
[1]
  Pre-emergence action rating, Abutilon: 2
  Pre-emergence action rating, Amaranthus: 2
  Pre-emergence action rating, Chenop.: 1
  Pre-emergence action rating, Digitaria: 2
  Pre-emergence action rating, Echino.: 1
  Pre-emergence action rating, Panicum: 2
[2]
  Post-emergence action rating, Abutilon: 2
  Post-emergence action rating, Amaranth: 2
  Post-emergence action rating, Chenop.: 1
  Post-emergence action rating, Digitaria: 2
  Post-emergence action rating, Echino.: 2
  Post-emergence action rating, Ipopur.: 2
  Post-emergence action rating, Panicum: 4
  Post-emergence action rating, Xanth.: 4

## CCOCc1nc(C(F)(F)F)ccc1C(=O)c1cnn(C)c1O [A2-C5]
[1]
  Pre-emergence action rating, Abutilon: 1
  Pre-emergence action rating, Amaranthus: 1
  Pre-emergence action rating, Chenop.: 1
  Pre-emergence action rating, Digitaria: 2
  Pre-emergence action rating, Echino.: 2
  Pre-emergence action rating, Panicum: 1
[2]
  Post-emergence action rating, Abutilon: 2
  Post-emergence action rating, Amaranth: 1
  Post-emergence action rating, Chenop.: 1
  Post-emergence action rating, Digitaria: 2
  Post-emergence action rating, Echino.: 2
  Post-emergence action rating, Ipopur.: 2
  Post-emergence action rating, Panicum: 1
  Post-emergence action rating, Xanth.: 2

## CC(C)OCc1nc(C(F)(F)F)ccc1C(=O)c1cnn(C)c1O [A3-C5]
[1]
  Pre-emergence action rating, Abutilon: 1
  Pre-emergence action rating, Amaranthus: 1
  Pre-emergence action rating, Digitaria: 2
  Pre-emergence action rating, Echino.: 2
  Pre-emergence action rating, Panicum: 1
[2]
  Post-emergence action rating, Abutilon: 3
  Post-emergence action rating, Amaranth: 3
  Post-emergence action rating, Chenop.: 1
  Post-emergence action rating, Digitaria: 4
  Post-emergence action rating, Echino.: 3
  Post-emergence action rating, Ipopur.: 3
  Post-emergence action rating, Panicum: 3
  Post-emergence action rating, Xanth.: 3

## COCOCc1nc(C(F)(F)F)ccc1C(=O)C1=C(O)C2CCC(C2)C1=O (stereo not drawn) [A8-B52]
[1]
  Pre-emergence action rating, Abutilon: 1
  Pre-emergence action rating, Amaranthus: 1
  Pre-emergence action rating, Digitaria: 1
  Pre-emergence action rating, Echino.: 1
  Pre-emergence action rating, Panicum: 1
[2]
  Post-emergence action rating, Abutilon: 1
  Post-emergence action rating, Amaranth: 1
  Post-emergence action rating, Chenop.: 1
  Post-emergence action rating, Digitaria: 1
  Post-emergence action rating, Echino.: 1
  Post-emergence action rating, Ipopur.: 1
  Post-emergence action rating, Panicum: 1
  Post-emergence action rating, Xanth.: 2

## COCCOCc1nc(C(F)(F)F)ccc1C(=O)C1=C(O)CCCC1=O [A10-B1]
[1]
  Pre-emergence action rating, Abutilon: 1
  Pre-emergence action rating, Amaranthus: 1
  Pre-emergence action rating, Chenop.: 1
  Pre-emergence action rating, Digitaria: 2
  Pre-emergence action rating, Echino.: 2
  Pre-emergence action rating, Panicum: 2
[2]
  Post-emergence action rating, Abutilon: 2
  Post-emergence action rating, Amaranth: 2
  Post-emergence action rating, Chenop.: 1
  Post-emergence action rating, Digitaria: 2
  Post-emergence action rating, Echino.: 2
  Post-emergence action rating, Ipopur.: 2
  Post-emergence action rating, Panicum: 2
  Post-emergence action rating, Xanth.: 2

## COCCOCc1nc(C(F)(F)F)ccc1C(=O)C1=C(O)CCC(C)(C)C1=O [A10-B3]
[1]
  Pre-emergence action rating, Abutilon: 1
  Pre-emergence action rating, Amaranthus: 1
  Pre-emergence action rating, Chenop.: 1
  Pre-emergence action rating, Digitaria: 1
  Pre-emergence action rating, Echino.: 1
  Pre-emergence action rating, Panicum: 1
[2]
  Post-emergence action rating, Abutilon: 1
  Post-emergence action rating, Amaranth: 1
  Post-emergence action rating, Chenop.: 1
  Post-emergence action rating, Digitaria: 1
  Post-emergence action rating, Echino.: 3
  Post-emergence action rating, Ipopur.: 2
  Post-emergence action rating, Panicum: 1
  Post-emergence action rating, Xanth.: 1

## COCCOCc1nc(C(F)(F)F)ccc1C(=O)C1=C(O)C(C)(C)CC(C)C1=O (stereo not drawn) [A10-B4]
[1]
  Pre-emergence action rating, Abutilon: 3
  Pre-emergence action rating, Amaranthus: 1
  Pre-emergence action rating, Chenop.: 1
  Pre-emergence action rating, Digitaria: 3
  Pre-emergence action rating, Echino.: 1
  Pre-emergence action rating, Panicum: 2
[2]
  Post-emergence action rating, Abutilon: 1
  Post-emergence action rating, Amaranth: 2
  Post-emergence action rating, Chenop.: 1
  Post-emergence action rating, Digitaria: 1
  Post-emergence action rating, Echino.: 2
  Post-emergence action rating, Ipopur.: 1
  Post-emergence action rating, Panicum: 1
  Post-emergence action rating, Xanth.: 2

## CCOC(=O)C1(C)CCC(=O)C(C(=O)c2ccc(C(F)(F)F)nc2COCCOC)=C1O (stereo not drawn) [A10-B14]
[1]
  Pre-emergence action rating, Abutilon: 1
  Pre-emergence action rating, Amaranthus: 1
  Pre-emergence action rating, Chenop.: 1
  Pre-emergence action rating, Digitaria: 6
  Pre-emergence action rating, Echino.: 3
  Pre-emergence action rating, Panicum: 3
[2]
  Post-emergence action rating, Abutilon: 2
  Post-emergence action rating, Amaranth: 2
  Post-emergence action rating, Chenop.: 1
  Post-emergence action rating, Digitaria: 2
  Post-emergence action rating, Echino.: 3
  Post-emergence action rating, Ipopur.: 2
  Post-emergence action rating, Panicum: 2
  Post-emergence action rating, Xanth.: 2

## COCCOCc1nc(C(F)(F)F)ccc1C(=O)C1=C(O)CCC2(CC2)C1=O [A10-B17]
[1]
  Pre-emergence action rating, Abutilon: 4
  Pre-emergence action rating, Amaranthus: 2
  Pre-emergence action rating, Chenop.: 1
  Pre-emergence action rating, Digitaria: 1
  Pre-emergence action rating, Echino.: 1
  Pre-emergence action rating, Panicum: 1
[2]
  Post-emergence action rating, Abutilon: 2
  Post-emergence action rating, Amaranth: 2
  Post-emergence action rating, Chenop.: 1
  Post-emergence action rating, Digitaria: 1
  Post-emergence action rating, Echino.: 2
  Post-emergence action rating, Ipopur.: 2
  Post-emergence action rating, Panicum: 2
  Post-emergence action rating, Xanth.: 2

## COCCOCc1nc(C(F)(F)F)ccc1C(=O)C1=C(O)C(C)(C)ON(C)C1=O [A10-B25]
[1]
  Pre-emergence action rating, Abutilon: 1
  Pre-emergence action rating, Amaranthus: 1
  Pre-emergence action rating, Chenop.: 1
  Pre-emergence action rating, Digitaria: 1
  Pre-emergence action rating, Echino.: 2
  Pre-emergence action rating, Panicum: 1
[2]
  Post-emergence action rating, Abutilon: 3
  Post-emergence action rating, Amaranth: 2
  Post-emergence action rating, Chenop.: 1
  Post-emergence action rating, Digitaria: 4
  Post-emergence action rating, Echino.: 4
  Post-emergence action rating, Ipopur.: 3
  Post-emergence action rating, Panicum: 3
  Post-emergence action rating, Xanth.: 3

## COCCOCc1nc(C(F)(F)F)ccc1C(=O)C1=C(O)C(C)(C)C(=O)C(C)(C)C1=O [A10-B39]
[1]
  Pre-emergence action rating, Abutilon: 1
  Pre-emergence action rating, Amaranthus: 1
  Pre-emergence action rating, Chenop.: 1
  Pre-emergence action rating, Digitaria: 1
  Pre-emergence action rating, Echino.: 1
  Pre-emergence action rating, Panicum: 1
[2]
  Post-emergence action rating, Abutilon: 1
  Post-emergence action rating, Amaranth: 1
  Post-emergence action rating, Chenop.: 1
  Post-emergence action rating, Digitaria: 3
  Post-emergence action rating, Echino.: 3
  Post-emergence action rating, Ipopur.: 2
  Post-emergence action rating, Panicum: 1
  Post-emergence action rating, Xanth.: 2

## CCN(CC)CC.COCCOCc1nc(C(F)(F)F)ccc1C(=O)C1=C(O)C2CCC(C2)C1=O (stereo not drawn) [A10-B52 (Et3NH+)]
[1]
  Pre-emergence action rating, Abutilon: 1
  Pre-emergence action rating, Amaranthus: 1
  Pre-emergence action rating, Chenop.: 1
  Pre-emergence action rating, Digitaria: 1
  Pre-emergence action rating, Echino.: 2
  Pre-emergence action rating, Panicum: 1
[2]
  Post-emergence action rating, Abutilon: 2
  Post-emergence action rating, Amaranth: 2
  Post-emergence action rating, Chenop.: 1
  Post-emergence action rating, Digitaria: 2
  Post-emergence action rating, Echino.: 2
  Post-emergence action rating, Ipopur.: 2
  Post-emergence action rating, Panicum: 2
  Post-emergence action rating, Xanth.: 2
